Data set [1] deals with HeLa cells. Briefly: MTT colorimetric toxicity assay. Type of data set: cell-based. The settings on record: STS 2µM, 24 h. As for the experimental part: incubated in cell culture medium containing 0.5 mg/ml 3-(4,5-dimethylthiazol-2-yl)-2,5-diphenyltetrazolium bromide (MTT) for 2 h at 37°C. The cells were then incubated for 30 min at 37°C in the solubilization solution (isopropanol/1N HCl 23:1) before collecting the supernatant to measure the absorbance at 540 and 620 nm for the background.
Supplementary Figure 4. […] (A) HeLa cells were incubated with propidium iodide after […]
staurosporine (STS). (B) HeLa cells were incubated with MTT after treatment for 24 h with […]
The results presented are representative of two independent experiments at least. Error bar= S.D., p-values (p) were calculated using Student's t-test. Source data are provided as a Source Data file.
(also on this page, place not known: % dead Colorimetry measure (au) cells of) […]
A general note: Tetrazolium dyes change colour on reduction, which living cells bring about.

Data set [2] has as its system HeLa cells. Briefly: Toxicity assay: adenylate kinase activity in culture medium. The format is cell-based, human. The settings on record: 24 h; for Adenylate kinase activity in culture medium: STS 2µM. As for the experimental part:
The toxicity assay was performed 24 h after starting cell treatment. The cell culture supernatant was centrifuged at 6000×g for 10 min to pellet cells and cell debris. One-twentieth of the supernatant was then used to measure adenylate kinase activity according to the supplier’s protocol (Lonza Biosciences, Basel, Switzerland).

The subject of another data set is nonsense mutations. Set-up: method as in PMID 28096517. The following applies: cited from earlier work.
The test system of data set [3] is L5178Y TK+/− mouse lymphoma cells.
Procedure: The idea was to reproduce the metabolizing conditions prevailing in the liver.
This was followed by a 24-h recovery period when the experiment was performed in the presence of Aroclor-induced rat liver S9 metabolizing mix (at 2% final concentration). […] The nuclei were then stained with Giemsa before counting the micronuclei among 1000 mononucleated cells.

The structures appear in SMILES notation.

On to `CN[C@@H]1C[C@H]2O[C@@](C)([C@@H]1OC)n1c3ccccc3c3c4c(c5c6ccccc6n2c5c31)C(=O)NC4` [STS, staurosporine, reference compound], for which the MTT colorimetry measure in the data set with HeLa cells [1] (average) was determined as 0.183 au; in the data set with HeLa cells [1] (experiment 1) it was 0.0455 au; in the data set with HeLa cells [1] (experiment 2), 0.1825 au; in the data set with HeLa cells [1] (experiment 3), 0.321 au. The “Release of adenylate kinase, in words” value in the data set with HeLa cells [2] was “released adenylate kinase”. Further, the “Adenylate kinase activity in culture medium” value in the data set on HeLa cells [2] (average) amounted to 1755878; in the data set with HeLa cells [2] (experiment 1) it was 1822755; in the data set on HeLa cells [2] (experiment 2) it was 1498272; in the data set on HeLa cells [2] (experiment 3), 1946608.
In the case of `Nc1ncnc(N[C@@H]2O[C@H](CO)[C@@H](O)[C@H]2O)c1[N+](=O)[O-]` [clitocine, (2R,3R,4S,5R)-2-[(6-amino-5-nitropyrimidin-4-yl)amino]-5-(hydroxymethyl)oxolane-3,4-diol], the “Nonsense mutation correction compared to G418” value in the data set with nonsense mutations is recorded as “correct nonsense mutations more efficiently than G418”.
Compound `O=P1(N(CCCl)CCCl)NCCCO1` (centres unmarked) [Cyclopho sphamide, cyclophosphamide] yielded a Micronucleated cells in data set [3] of 60.

Source of the values: article PMC7083880 (Nature Communications, 2020).
